Experiment [1] deals with TGF-β-stimulated SMAD3 phosphorylation in BEAS-2B cells. As to the kind of experiment: Cellular ALK5 potency assay, inhibition of TGF-β stimulated pSMAD3 formation in BEAS-2B cells. The experiment is classed as cell-based. To be noted: Homo sapiens; inhibition of TGF-β stimulated pSMAD3 formation, BEAS-2B cells; read-out: BEAS2B pIC50 (converted). The essentials:
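pSMAD3 was quantified by AlphaLISA in BEAS-2B lysates after 10 ng/mL TGF-β (final) for 30 min. Before stimulation, cells received compound for 1 h at 37° C in supplemented HBSS. Values are pIC50, relative to TGF-β-stimulated cells without compound.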

The target in experiment [2] is T1, recombinant human ALK5 (TGF-βR1) protein (Homo sapiens, UniProt P36897).
T1 construct: purchased Life Technologies PR9075A
T1 sequence (P36897 34-503): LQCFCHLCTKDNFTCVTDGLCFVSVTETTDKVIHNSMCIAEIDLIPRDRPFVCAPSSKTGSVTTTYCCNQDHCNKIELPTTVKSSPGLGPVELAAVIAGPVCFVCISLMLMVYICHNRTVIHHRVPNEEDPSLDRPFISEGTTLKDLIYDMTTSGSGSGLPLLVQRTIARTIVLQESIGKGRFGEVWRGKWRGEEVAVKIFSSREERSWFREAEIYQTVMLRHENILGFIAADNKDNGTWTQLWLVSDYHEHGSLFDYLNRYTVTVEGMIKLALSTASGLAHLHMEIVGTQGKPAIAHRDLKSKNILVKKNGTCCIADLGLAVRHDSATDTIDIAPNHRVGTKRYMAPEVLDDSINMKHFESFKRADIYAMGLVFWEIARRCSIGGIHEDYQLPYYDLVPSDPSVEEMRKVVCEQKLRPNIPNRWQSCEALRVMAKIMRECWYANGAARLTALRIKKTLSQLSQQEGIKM
Nature of the experiment: Biochemical ALK5 (TGF-βR1) assay to measure pKi (LANCE Ultra ULight kinase assay). The note with it: apparent pKi from pIC50 by Cheng-Prusoff, read-out: ALK5 pKi (converted). The essentials:
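After a 60 min room-temperature preincubation of ALK5 with compound, phosphorylation proceeds 60 min at 37 °C on ATP addition (125 μM as 5× stock). Detection: Eu-labelled phospho-Thr1342 Topo IIα antibody in EDTA buffer, pH 7.0; emission 665 nm.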

Molecules are shown by their SMILES. Where only a bound is given, the exact number is not on record here.

For the compound `Cc1cccc(-c2n[nH]cc2-c2ccc3ncc(NC(C)(C)CN4CCN(C)CC4)cc3n2)n1` [Compound 556, N-[1,1-dimethyl-2-(4-methylpiperazin-1-yl)ethyl]-6-[3-(6-methyl-2-pyridyl)-1H-pyrazol-4-yl]-1,5-naphthyridin-3-amine], in experiment [1], the IC50 is 25.1 to 158 nM. Also, in experiment [2], the Ki was 0.398 to 3.16 nM.
`Cc1cccc(-c2[nH]cnc2-c2ccc3ncc(-c4ccnc(C(=O)O[C@H]5CCNC5)c4)cc3c2)n1` [Compound 1058, [(3S)-pyrrolidin-3-yl] 4-[6-[5-(6-methyl-2-pyridyl)-1H-imidazol-4-yl]-3-quinolyl]pyridine-2-carboxylate]: the IC50 in experiment [1] is 200 to 1260 nM. Also, in experiment [2], the Ki is 0.0398 to 0.316 nM.
Turning to `Cc1cccc(-c2[nH]cnc2-c2ccc3ncc(-c4cccc(N5CCNCC5)c4)cc3c2)n1` [Compound 581, 6-[5-(6-methyl-2-pyridyl)-1H-imidazol-4-yl]-3-(3-piperazin-1-ylphenyl)quinoline], the IC50 in experiment [1] is 25.1 to 158 nM. In addition, the Ki in experiment [2] is less than 0.0316 nM.
Consider `Cc1cccc(-c2[nH]cnc2-c2ccc3ncc(-c4cccc(C(=O)O[C@H]5CCN(C)C5)c4)cc3c2)n1` [Compound 522, [(3S)-1-methylpyrrolidin-3-yl] 3-[6-[5-(6-methyl-2-pyridyl)-1H-imidazol-4-yl]-3-quinolyl]benzoate], for which, in experiment [1], the IC50 is 25.1 to 158 nM. Also, in experiment [2], the Ki is 0.0398 to 0.316 nM.
With `Cc1cccc(-c2[nH]cnc2-c2ccc3ncc(C4CCC(N)CC4)cc3c2)n1` (stereo not shown) [Compound 142, 4-[6-[5-(6-methyl-2-pyridyl)-1H-imidazol-4-yl]-3-quinolyl]cyclohexanamine], in experiment [1], the IC50 was 25.1 to 158 nM. Moreover, the Ki in experiment [2] is 0.398 to 3.16 nM.
Regarding `Cc1cccc(-c2[nH]cnc2-c2ccc3ncc(-c4ccc(C(=O)O)cc4)cc3c2)n1` [Compound 145, 4-[6-[5-(6-methyl-2-pyridyl)-1H-imidazol-4-yl]-3-quinolyl]benzoic acid], in experiment [1], the IC50 was 200 to 1260 nM. Besides, the Ki in experiment [2] is 0.0398 to 0.316 nM.
In the case of `Cc1cccc(-c2n[nH]cc2-c2ccc3ncc(-c4ccccn4)cc3n2)n1` [Compound 518, 2-[3-(6-methyl-2-pyridyl)-1H-pyrazol-4-yl]-7-(2-pyridyl)-1,5-naphthyridine], the IC50 in experiment [1] was less than 20 nM. Besides, the Ki in experiment [2] was 0.0398 to 0.316 nM.
The like results for `Cc1nc(-c2nc3ccccn3c2-c2ccc3ncc(-c4cc5n(n4)CCNC5)cc3n2)ccc1F` [Compound 558, 2-[2-(5-fluoro-6-methyl-2-pyridyl)imidazo[1,2-a]pyridin-3-yl]-7-(4,5,6,7-tetrahydropyrazolo[1,5-a]pyrazin-2-yl)-1,5-naphthyridine] were, in that order, 25.1 to 158 nM and 0.0398 to 0.316 nM.
In the case of `CNCCn1cc(-c2cnc3ccc(-c4c(-c5cccc(C)n5)nn5c4NCC5)cc3c2)cn1` [Compound 632, N-methyl-2-[4-[6-[6-(6-methyl-2-pyridyl)-2,3-dihydro-1H-imidazo[1,2-b]pyrazol-7-yl]-3-quinolyl]pyrazol-1-yl]ethanamine], in experiment [1], the IC50 is 25.1 to 158 nM. The Ki in experiment [2] was 0.0398 to 0.316 nM.
Take `Cc1cccc(-c2[nH]cnc2-c2ccc3ncc(-c4ccc5c(c4)CCNC5)cc3c2)n1` [Compound 278, 6-[5-(6-methyl-2-pyridyl)-1H-imidazol-4-yl]-3-(1,2,3,4-tetrahydroisoquinolin-6-yl)quinoline]: in experiment [1], the IC50 is less than 20 nM. Moreover, the Ki in experiment [2] is 0.0398 to 0.316 nM.
The like results for `CNC1CC2CCC(C1)N2c1cnc2ccc(-c3c[nH]nc3-c3cccc(C)n3)nc2c1` (stereo not shown) [Compound 248, N-methyl-8-[6-[3-(6-methyl-2-pyridyl)-1H-pyrazol-4-yl]-1,5-naphthyridin-3-yl]-8-azabicyclo[3.2.1]octan-3-amine] were, in that order, 200 to 1260 nM and 3.98 to 31.6 nM.
As for `Cc1cccc(-c2[nH]cnc2-c2ccc3ncc(-c4ccnc(C(=O)OC5CCNCC5)c4)cc3c2)n1` [Compound 799, 4-piperidyl 4-[6-[5-(6-methyl-2-pyridyl)-1H-imidazol-4-yl]-3-quinolyl]pyridine-2-carboxylate], the IC50 in experiment [1] was 200 to 1260 nM. The Ki in experiment [2] was 0.0398 to 0.316 nM.
Consider `Cc1cccc(-c2n[nH]cc2-c2ccc3ncc(-c4cncnc4)cc3n2)n1` [Compound 416, 2-[3-(6-methyl-2-pyridyl)-1H-pyrazol-4-yl]-7-pyrimidin-5-yl-1,5-naphthyridine], for which the IC50 in experiment [1] is less than 20 nM. For the same compound, in experiment [2], the Ki was 0.0398 to 0.316 nM.
Turning to `Cc1cccc(-c2[nH]ncc2-c2ccc3ncc(C(=O)O[C@H]4CCNC4)cc3c2)n1` [Compound 1218, [(3S)-pyrrolidin-3-yl]6-[5-(6-methyl-2-pyridyl)-1H-pyrazol-4-yl]quinoline-3-carboxylate], the IC50 in experiment [1] is 25.1 to 158 nM. Moreover, the Ki in experiment [2] is 0.0398 to 0.316 nM.
Turning to `Cc1cccc(-c2[nH]cnc2-c2ccc3ncc(-c4csc(C(=O)O[C@H]5CC[C@](C)(N)CC5)c4)cc3c2)n1` [Compound 1200, (4-amino-4-methyl-cyclohexyl) 4-[6-[5-(6-methyl-2-pyridyl)-1H-imidazol-4-yl]-3-quinolyl]thiophene-2-carboxylate], in experiment [1], the IC50 is 25.1 to 158 nM. The Ki in experiment [2] was 0.0398 to 0.316 nM.
For the compound `Cc1cccc(-c2[nH]cnc2-c2ccc3ncc(-c4ccc(C(=O)OCC5CNC5)s4)cc3c2)n1` [Compound 1007, azetidin-3-ylmethyl 5-(6-(5-(6-methylpyridin-2-yl)-1H-imidazol-4-yl)quinolin-3-yl)thiophene-2-carboxylate], the IC50 in experiment [1] was 25.1 to 158 nM. Also, in experiment [2], the Ki was 0.0398 to 0.316 nM.
Consider `Cc1cccc(-c2n[nH]cc2-c2ccc3ncc(N4CCC5(CCN(C(=O)OCc6ccccc6)C5)C4)cc3n2)n1` (stereo not shown) [Compound 124, benzyl 7-[6-[3-(6-methyl-2-pyridyl)-1H-pyrazol-4-yl]-1,5-naphthyridin-3-yl]-2,7-diazaspiro[4.4]nonane-2-carboxylate], for which the IC50 in experiment [1] is 25.1 to 158 nM. Also, the Ki in experiment [2] is 0.0398 to 0.316 nM.
Take `Cc1cccc(-c2n[nH]cc2-c2ccc3ncc(N4CCCN(C5CCNCC5)CC4)cc3n2)n1` [Compound 638, 2-[3-(6-methyl-2-pyridyl)-1H-pyrazol-4-yl]-7-[4-(4-piperidyl)-1,4-diazepan-1-yl]-1,5-naphthyridine]: in experiment [1], the IC50 is 1580 to 10000 nM. In addition, the Ki in experiment [2] is 0.0398 to 0.316 nM.
With `Cc1cccc(-c2[nH]cnc2-c2ccc3ncc(-c4ncc(C(=O)OCC5CNC5)cn4)cc3c2)n1` [Compound 1144, azetidin-3-ylmethyl 2-[6-[5-(6-methyl-2-pyridyl)-1H-imidazol-4-yl]-3-quinolyl]pyrimidine-5-carboxylate], in experiment [1], the IC50 was 25.1 to 158 nM. In experiment [2], the Ki is 0.0398 to 0.316 nM.
The matching figures for `CNCCn1cc(-c2cnc3ccc(-c4c(-c5cccc(C)n5)n[nH]c4N)nc3c2)cn1` [Compound 512, 4-[7-[1-[2-(methylamino)ethyl]pyrazol-4-yl]-1,5-naphthyridin-2-yl]-3-(6-methyl-2-pyridyl)-1H-pyrazol-5-amine]: 200 to 1260 nM and 0.0398 to 0.316 nM.
`COC(=O)CC1CN(c2cnc3ccc(-c4nc[nH]c4-c4cccc(C)n4)cc3c2)CCN1` (stereo not shown) [Compound 60, methyl 2-(4-(6-(5-(6-methylpyridin-2-yl)-1H-imidazol-4-yl)quinolin-3-yl)piperazin-2-yl)acetate]: the IC50 in experiment [1] was 25.1 to 158 nM. Also, the Ki in experiment [2] is 0.0398 to 0.316 nM.
In the case of `Cc1cccc(-c2[nH]cnc2-c2ccc3ncc(C4=CCN(Cc5ccccc5)C4)cc3c2)n1` [Compound 232, 3-(1-benzyl-2,5-dihydropyrrol-3-yl)-6-[5-(6-methyl-2-pyridyl)-1H-imidazol-4-yl]quinoline], the IC50 in experiment [1] is 25.1 to 158 nM. Also, in experiment [2], the Ki was less than 0.0316 nM.
`COC(=O)[C@H]1CCCCN1CCNc1cnc2ccc(-c3nc[nH]c3-c3cccc(C)n3)cc2c1` [Compound 706, methyl (2R)-1-[2-[[6-[5-(6-methyl-2-pyridyl)-1H-imidazol-4-yl]-3-quinolyl]amino]ethyl]piperidine-2-carboxylate]: the IC50 in experiment [1] was 25.1 to 158 nM. In addition, in experiment [2], the Ki is 0.0398 to 0.316 nM.
As for `Cc1cccc(-c2n[nH]cc2-c2ccc3ncc(CNC(C(=O)OC4CCCC4)c4ccccc4)cc3n2)n1` (stereo not shown) [Compound 684, cyclopentyl 2-[[6-[3-(6-methyl-2-pyridyl)-1H-pyrazol-4-yl]-1,5-naphthyridin-3-yl]methylamino]-2-phenyl-acetate], the IC50 in experiment [1] is 200 to 1260 nM. Also, the Ki in experiment [2] was 3.98 to 31.6 nM.
For `Cc1cccc(-c2[nH]cnc2-c2ccc3ncc(C(=O)O[C@H]4CCC[C@H](N)C4)cc3c2)n1` (racemic) [Compound 774, [rac-(1S,3S)-3-aminocyclohexyl] 6-[5-(6-methyl-2-pyridyl)-1H-imidazol-4-yl]quinoline-3-carboxylate], the IC50 in experiment [1] was 200 to 1260 nM. Besides, the Ki in experiment [2] is 0.398 to 3.16 nM.
In the case of `Cc1cccc(-c2[nH]cnc2-c2ccc3ncc(-c4cncc(C(=O)OC5CNC5)c4)cc3c2)n1` [Compound 577, azetidin-3-yl 5-[6-[5-(6-methyl-2-pyridyl)-1H-imidazol-4-yl]-3-quinolyl]pyridine-3-carboxylate], the IC50 in experiment [1] is 200 to 1260 nM. Further, in experiment [2], the Ki was 0.0398 to 0.316 nM.

The record behind these values is patent publication US11590116B2 (THERAVANCE BIOPHARMA R&D IP, LLC, priority 2019, dated 2023).
